Measurements from ChEMBL document CHEMBL5465560, “Selectivity Literature for EUbOPEN Chemogenomic Library” (2024).

What was measured:
[1] = biological target: T1, Tyrosine-protein kinase Mer (Homo sapiens) (UniProt Q12866); test: Selectivity interaction (KinomeScan (DiscoverX)) EUB0001079a MERTK; details: at 1 µM
T1 sequence (whole entry): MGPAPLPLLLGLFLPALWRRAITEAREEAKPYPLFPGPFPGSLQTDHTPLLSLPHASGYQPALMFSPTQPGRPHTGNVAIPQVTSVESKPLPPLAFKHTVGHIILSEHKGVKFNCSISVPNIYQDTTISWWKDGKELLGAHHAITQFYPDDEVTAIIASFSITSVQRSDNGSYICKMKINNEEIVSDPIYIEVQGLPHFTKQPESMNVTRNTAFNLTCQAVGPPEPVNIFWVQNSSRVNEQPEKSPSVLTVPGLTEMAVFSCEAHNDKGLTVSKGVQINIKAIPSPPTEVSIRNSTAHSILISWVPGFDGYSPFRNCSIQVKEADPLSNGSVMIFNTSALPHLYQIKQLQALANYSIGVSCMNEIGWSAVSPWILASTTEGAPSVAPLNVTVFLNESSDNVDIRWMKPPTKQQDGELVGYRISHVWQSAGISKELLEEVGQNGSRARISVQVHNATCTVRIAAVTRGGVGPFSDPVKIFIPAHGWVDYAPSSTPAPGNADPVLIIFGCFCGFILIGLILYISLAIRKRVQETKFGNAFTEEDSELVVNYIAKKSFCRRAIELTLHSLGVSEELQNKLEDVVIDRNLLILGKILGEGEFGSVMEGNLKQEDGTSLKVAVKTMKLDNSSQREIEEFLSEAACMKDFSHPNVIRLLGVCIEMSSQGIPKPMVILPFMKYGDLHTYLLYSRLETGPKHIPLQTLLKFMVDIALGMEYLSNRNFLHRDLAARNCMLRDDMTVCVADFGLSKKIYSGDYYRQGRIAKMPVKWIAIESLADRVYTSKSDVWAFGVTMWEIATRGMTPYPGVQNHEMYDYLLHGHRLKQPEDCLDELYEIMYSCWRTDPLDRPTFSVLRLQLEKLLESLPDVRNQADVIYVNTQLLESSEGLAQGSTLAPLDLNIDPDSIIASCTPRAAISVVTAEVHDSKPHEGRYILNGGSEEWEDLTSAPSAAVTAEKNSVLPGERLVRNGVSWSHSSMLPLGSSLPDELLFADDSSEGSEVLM

[2] = biological target: Casein kinase II subunit alpha (Homo sapiens, UniProt P68400); test: Selectivity interaction (Kinase panel (KiNativ target engagement assay in Jurkat cells)) EUB0001635a CSNK2A1; format: cell-based; details: Selectivity number of off-targets 0.0, Selectivity number of targets 233.0, Source Knowledge https://www.sciencedirect.com/science/article/pii/S2451945619300674?via%3Dihub, at 1 µM
[3] = biological target: T2, Mitogen-activated protein kinase kinase kinase kinase 2 (Homo sapiens) (UniProt Q12851); test: Selectivity interaction (ActivX KiNativ screen (kinase selectivity in THP-1 cell lysates)) EUB0000639a MAP4K2; format: subcellular; details: lysate, at 0.2 µM
T2 sequence (whole entry): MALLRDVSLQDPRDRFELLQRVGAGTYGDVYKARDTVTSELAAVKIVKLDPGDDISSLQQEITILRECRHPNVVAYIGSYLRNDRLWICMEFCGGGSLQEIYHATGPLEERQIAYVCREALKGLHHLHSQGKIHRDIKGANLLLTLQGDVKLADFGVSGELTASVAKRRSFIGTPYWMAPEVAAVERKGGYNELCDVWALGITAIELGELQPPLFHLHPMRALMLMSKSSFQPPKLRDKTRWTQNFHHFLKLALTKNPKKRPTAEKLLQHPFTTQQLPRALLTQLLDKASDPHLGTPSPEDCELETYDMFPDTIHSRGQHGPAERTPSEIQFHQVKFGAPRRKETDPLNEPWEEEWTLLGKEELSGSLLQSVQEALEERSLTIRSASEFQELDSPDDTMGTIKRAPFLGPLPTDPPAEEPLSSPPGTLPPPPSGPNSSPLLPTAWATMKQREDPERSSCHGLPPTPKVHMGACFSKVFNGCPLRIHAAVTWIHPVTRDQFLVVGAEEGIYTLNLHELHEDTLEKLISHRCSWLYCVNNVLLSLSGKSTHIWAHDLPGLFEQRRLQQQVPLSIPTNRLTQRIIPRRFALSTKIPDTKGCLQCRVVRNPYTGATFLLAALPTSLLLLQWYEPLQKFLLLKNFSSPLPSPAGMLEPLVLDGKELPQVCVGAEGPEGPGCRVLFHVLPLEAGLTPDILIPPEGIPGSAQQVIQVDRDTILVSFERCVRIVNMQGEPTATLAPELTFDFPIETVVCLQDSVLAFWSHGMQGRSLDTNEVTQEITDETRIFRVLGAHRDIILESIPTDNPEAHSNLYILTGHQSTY

[4] = biological target: Serine/threonine-protein kinase 35 (Homo sapiens) (UniProt Q8TDR2); test: Selectivity interaction (KinomeScan (DiscoverX)) EUB0000618a STK35; details: at 10 µM
[5] = biological target: DNA (cytosine-5)-methyltransferase 3A (Homo sapiens) (UniProt Q9Y6K1); test: Selectivity interaction (Methyltransferase screen (radiometric assays, panel of 8 PRMTs, 21 protein lysine methyltransferases, 3 DNA methyltransferases, and one RNA methyltransferase)) EUB0000272b DNMT3A
DNA (cytosine-5)-methyltransferase 3A (Homo sapiens), sequence (Q9Y6K1 whole entry, looked up): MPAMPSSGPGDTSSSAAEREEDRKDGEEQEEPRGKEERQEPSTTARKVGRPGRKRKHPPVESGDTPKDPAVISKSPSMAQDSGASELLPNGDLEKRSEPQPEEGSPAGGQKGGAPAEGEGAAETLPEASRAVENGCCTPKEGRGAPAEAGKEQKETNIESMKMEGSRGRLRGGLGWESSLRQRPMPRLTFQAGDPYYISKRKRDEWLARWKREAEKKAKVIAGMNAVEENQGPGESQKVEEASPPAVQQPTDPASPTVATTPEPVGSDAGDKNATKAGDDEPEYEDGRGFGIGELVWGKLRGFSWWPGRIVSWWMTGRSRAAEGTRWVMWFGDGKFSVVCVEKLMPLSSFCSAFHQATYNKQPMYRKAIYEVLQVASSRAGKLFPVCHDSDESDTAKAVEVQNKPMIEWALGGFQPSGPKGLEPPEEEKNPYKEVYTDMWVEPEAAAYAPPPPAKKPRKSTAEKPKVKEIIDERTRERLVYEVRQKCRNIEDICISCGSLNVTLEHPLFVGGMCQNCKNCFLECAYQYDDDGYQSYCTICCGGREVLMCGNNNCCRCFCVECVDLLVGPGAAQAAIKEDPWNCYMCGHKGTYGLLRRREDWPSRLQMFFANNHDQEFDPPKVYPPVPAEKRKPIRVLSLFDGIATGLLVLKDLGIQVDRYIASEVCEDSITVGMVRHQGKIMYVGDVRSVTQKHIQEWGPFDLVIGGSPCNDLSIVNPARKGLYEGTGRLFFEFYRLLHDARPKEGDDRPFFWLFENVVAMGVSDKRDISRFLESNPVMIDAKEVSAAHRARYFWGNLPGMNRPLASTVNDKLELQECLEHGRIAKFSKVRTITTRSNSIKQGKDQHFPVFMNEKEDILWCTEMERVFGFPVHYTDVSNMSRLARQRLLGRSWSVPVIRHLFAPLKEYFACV

Casein kinase II subunit alpha, sequence (P68400 whole entry, looked up): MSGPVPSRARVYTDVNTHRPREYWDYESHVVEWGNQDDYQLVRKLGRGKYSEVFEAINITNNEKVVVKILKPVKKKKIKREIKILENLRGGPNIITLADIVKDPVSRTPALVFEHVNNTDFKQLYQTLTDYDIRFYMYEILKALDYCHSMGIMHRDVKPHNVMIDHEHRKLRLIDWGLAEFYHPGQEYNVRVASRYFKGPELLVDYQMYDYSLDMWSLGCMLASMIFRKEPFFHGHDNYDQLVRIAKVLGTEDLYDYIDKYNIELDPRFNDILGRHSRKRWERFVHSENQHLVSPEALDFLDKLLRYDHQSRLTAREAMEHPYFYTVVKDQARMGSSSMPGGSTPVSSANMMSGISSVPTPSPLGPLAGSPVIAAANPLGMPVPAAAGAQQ
Serine/threonine-protein kinase 35 (Homo sapiens), sequence (Q8TDR2 whole entry): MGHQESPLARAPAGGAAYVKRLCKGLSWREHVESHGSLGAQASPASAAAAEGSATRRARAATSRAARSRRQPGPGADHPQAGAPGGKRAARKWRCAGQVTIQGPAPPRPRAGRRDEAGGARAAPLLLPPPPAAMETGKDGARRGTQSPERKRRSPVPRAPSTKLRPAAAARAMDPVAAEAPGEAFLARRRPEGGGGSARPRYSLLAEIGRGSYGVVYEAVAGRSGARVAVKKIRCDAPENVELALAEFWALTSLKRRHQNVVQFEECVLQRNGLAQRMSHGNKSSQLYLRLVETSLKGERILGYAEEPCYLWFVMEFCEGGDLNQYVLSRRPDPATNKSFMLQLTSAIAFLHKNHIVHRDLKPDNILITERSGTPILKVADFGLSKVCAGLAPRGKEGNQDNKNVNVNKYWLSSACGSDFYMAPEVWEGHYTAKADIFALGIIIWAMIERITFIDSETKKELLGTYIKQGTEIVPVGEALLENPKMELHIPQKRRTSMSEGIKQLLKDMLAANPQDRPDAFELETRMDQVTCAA

Nc1cnc(N2CCc3cc(S(=O)(=O)Nc4c(F)cc(Cl)cc4F)cc(N4CCCC4=O)c32)nc1 [TP-020n]
% of control [1]: 100%

C=CC(=O)Nc1ccc(C(=O)Nc2[nH]nc3c2CN(C(=O)N[C@H](CN(C)C)c2ccccc2)C3(C)C)cc1
% of engagement [2]: -4.8%

CC[C@@H]1[C@H](F)C(=O)N[C@@H]1COc1nccc2cc(C(N)=O)c(OC)cc12 [ZIMLOVISERTIB]
% of inhibition [3]: 10.3%

O[C@H]1CC[C@H](Nc2ncc3nc(Nc4c(F)cc(F)cc4F)n([C@H]4CCOC4)c3n2)CC1
% of control [4]: 100%

Cc1cc(C)cc([C@H]2c3cc(C)ccc3NC(=O)CN2C(=O)c2ccc(Br)s2)c1
% of activity ([5]; at 1 µM): 98.3% | % of activity ([5]; at 10 µM): 93%
